Values of other authors as cited in patent publication US6458923B1, “Modified position (7) bradykinin antagonist peptides” (Scios Inc., priority 1991, dated 2002).
No end group written: not given here.

What was measured:
pulmonary kininase = conditions: anesthetized rat; intra-aortic vs intravenous administration

In the case of “RPPGFSPFR [Bradykinin, Arg Pro Pro Gly Phe Ser Pro Phe Arg]”, the “half life in the systemic circulation” value is given as “less than 30 seconds” and the “destruction on a single passage through the pulmonary circulation” value (pulmonary kininase) is given as 98-99%.
